Experimental data published in patent US20260285850A1, “SUBSTITUTED OXAZOLIDINONES AND IMIDAZOLINONES AS HERBICIDES” (FMC CORPORATION, priority 2023, published 2026).

Key:
Type in all cases: in vivo
[1] = tested on: sedge, umbrella (small-flower umbrella sedge, Cyperus difformis); assay: Test B flooded paddy test, visual plant response rating 0-100; details: 250 g ai/ha, Flood, applied to paddy water, evaluated after 13 days
Method in brief: (§1)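 Greenhouse, 13 d. Seedlings at 2-leaf stage, pots flooded to 3 cm, compound delivered into floodwater, water level held constant. Evaluated visually relative to controls.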

rice (Oryza sativa) = assay: as above; details: 250 g ai/ha, Flood, applied to paddy water, evaluated after 13 days
Method in brief: as §1

[2] = tested on: barnyardgrass (Echinochloa crusgalli); assay: as above; details: 250 g ai/ha, Flood, applied to paddy water, evaluated after 13 days
Method in brief: as §1

[3] = tested on: ducksalad (Heteranthera limosa); assay: as above; details: 250 g ai/ha, Flood, applied to paddy water, evaluated after 13 days
Method in brief: as §1

[4] = tested on: wheat (Triticum aestivum); assay: Test A preemergence soil spray, visual injury rating 0-100; details: 10 days, 0 = no effect, 100 = complete control
Method in brief: (§2)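 Plants were grown in a loam soil-sand blend and treated with test chemical in a non-phytotoxic solvent mixture containing surfactant, either sprayed on soil preemergence or applied postemergence to 2-10 cm plants. After 10 days in a greenhouse, injury was scored visually against untreated controls, 0 meaning no effect and 100 complete control.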

[5] = tested on: palmer (palmer amaranth, palmer pigweed, Amaranthus palmeri); assay: as above; details: 10 days, 0 = no effect, 100 = complete control
Method in brief: as §2

[6] = tested on: ryegrass, Italian (italian ryegrass, Lolium multiflorum); assay: as above; details: 10 days, 0 = no effect, 100 = complete control
Method in brief: as §2

[7] = tested on: barnyardgrass (Echinochloa crus-galli); assay: as above; details: 10 days, 0 = no effect, 100 = complete control
Method in brief: as §2

[8] = tested on: green foxtail (Setaria viridis); assay: as above; details: 10 days, 0 = no effect, 100 = complete control
Method in brief: as §2

[9] = tested on: oat, wild (wild oat, Avena fatua); assay: as above; details: 10 days, 0 = no effect, 100 = complete control
Method in brief: as §2

[10] = tested on: ragweed (common ragweed, Ambrosia artemisiifolia); assay: as above; details: 10 days, 0 = no effect, 100 = complete control
Method in brief: as §2

soybean (Glycine max) [11] = assay: as above; details: 10 days, 0 = no effect, 100 = complete control
Method in brief: as §2

kochia (Bassia scoparia) [12] = assay: as above; details: 10 days, 0 = no effect, 100 = complete control
Method in brief: as §2

corn (Zea mays) [13] = assay: as above; details: 10 days, 0 = no effect, 100 = complete control
Method in brief: as §2

[14] = tested on: blackgrass (Alopecurus myosuroides); assay: as above; details: 10 days, 0 = no effect, 100 = complete control
Method in brief: as §2

[15] = tested on: horseweed (Erigeron canadensis); assay: Test A postemergence application, visual injury rating 0-100; details: 10 days
Method in brief: as §2

[16] = tested on: wheat (Triticum aestivum); assay: as above; details: 10 days
Method in brief: as §2

[17] = tested on: palmer (palmer amaranth, palmer pigweed, Amaranthus palmeri); assay: as above; details: 10 days
Method in brief: as §2

[18] = tested on: ryegrass, Italian (italian ryegrass, Lolium multiflorum); assay: as above; details: 10 days
Method in brief: as §2

[19] = tested on: barnyardgrass (Echinochloa crus-galli); assay: as above; details: 10 days
Method in brief: as §2

[20] = tested on: green foxtail (Setaria viridis); assay: as above; details: 10 days
Method in brief: as §2

[21] = tested on: galium (catchweed bedstraw, Galium aparine); assay: as above; details: 10 days
Method in brief: as §2

[22] = tested on: oat, wild (wild oat, Avena fatua); assay: as above; details: 10 days
Method in brief: as §2

[23] = tested on: ragweed (common ragweed, Ambrosia artemisiifolia); assay: as above; details: 10 days
Method in brief: as §2

soybean (Glycine max) [24] = assay: as above; details: 10 days
Method in brief: as §2

kochia (Bassia scoparia) [25] = assay: as above; details: 10 days
Method in brief: as §2

corn (Zea mays) [26] = assay: as above; details: 10 days
Method in brief: as §2

[27] = tested on: blackgrass (Alopecurus myosuroides); assay: as above; details: 10 days
Method in brief: as §2

[28] = 31 g ai/ha, postemergence, 0 = no effect, 100 = complete control
[29] = Postemergence, 125 g ai/ha, 0 is no effect, 100 is complete control

`CCOC(=O)C1CC(NC(=O)C2(C)CN(c3cc(F)cc(F)c3)C(=O)O2)CO1` (stereo not shown) [Compound 31] was tested, and the “Plant response rating, Sedge, Umbrella (0 to 100 scale, 0 is no effect and 100 is complete control)” value [1] was 0, the “Plant response rating, Rice (0 to 100 scale, 0 is no effect and 100 is complete control)” value (rice (Oryza sativa)) was 0 and the “Plant response rating, Barnyardgrass (0 to 100 scale, 0 is no effect and 100 is complete control)” value [2] was 0. The “Plant response rating, Ducksalad (0 to 100 scale, 0 is no effect and 100 is complete control)” value [3] was 0, the “Wheat plant response rating (0-100)” value ([4]; 31 g ai/ha) was 0 and the “Wheat plant response rating (0 to 100 scale)” value ([4]; 125 g ai/ha) was 90. For the same molecule, the “Amaranth, Palmer plant response rating (0-100)” value ([5]; 31 g ai/ha) was 0, the “Amaranth, Palmer plant response rating (0 to 100 scale)” value ([5]; 125 g ai/ha) was 10 and the “Ryegrass, Italian plant response rating (0-100)” value ([6]; 31 g ai/ha) was 0. For the same molecule, the “Ryegrass, Italian plant response rating (0 to 100 scale)” value ([6]; 125 g ai/ha) was 60, the “Barnyardgrass plant response rating (0-100)” value ([7]; 31 g ai/ha) was 0 and the “Barnyardgrass plant response rating (0 to 100 scale)” value ([7]; 125 g ai/ha) was 0. The “Foxtail, Green plant response rating (0-100)” value ([8]; 31 g ai/ha) was 0, the “Foxtail, Green plant response rating (0 to 100 scale)” value ([8]; 125 g ai/ha) was 0 and the “Oat, Wild plant response rating (0-100)” value ([9]; 31 g ai/ha) was 0. For the same molecule, the “Oat, Wild plant response rating (0 to 100 scale)” value ([9]; 125 g ai/ha) was 30, the “Ragweed plant response rating (0-100)” value ([10]; 31 g ai/ha) was 0 and the “Ragweed plant response rating (0 to 100 scale)” value ([10]; 125 g ai/ha) was 0. For the same molecule, the “Soybean plant response rating (0-100)” value (soybean (Glycine max) [11]; 31 g ai/ha) was 0, the “Soybean plant response rating (0 to 100 scale)” value (soybean (Glycine max) [11]; 125 g ai/ha) was 0 and the “Kochia plant response rating (0-100)” value (kochia (Bassia scoparia) [12]; 31 g ai/ha) was 0. The “Kochia plant response rating (0 to 100 scale)” value (kochia (Bassia scoparia) [12]; 125 g ai/ha) was 0, the “Corn plant response rating (0-100)” value (corn (Zea mays) [13]; 31 g ai/ha) was 0 and the “Corn plant response rating (0 to 100 scale)” value (corn (Zea mays) [13]; 125 g ai/ha) was 0. For the same molecule, the “Blackgrass plant response rating (0-100)” value ([14]; 31 g ai/ha) was 20, the “Blackgrass plant response rating (0 to 100 scale)” value ([14]; 125 g ai/ha) was 30 and the “Horseweed plant response rating (0-100)” value [15, 28] was 0. For the same molecule, the “Horseweed plant response rating (0 to 100 scale)” value [15, 29] was 0, the “Wheat plant response rating (0-100)” value [16, 28] was 90 and the “Wheat plant response rating (0 to 100 scale)” value [16, 29] was 90. The “Amaranth, Palmer plant response rating (0-100)” value [17, 28] was 0, the “Amaranth, Palmer / Pigweed, Palmer plant response rating (0 to 100 scale)” value [17, 29] was 20 and the “Ryegrass, Italian plant response rating (0-100)” value [18, 28] was 60. The “Ryegrass, Italian plant response rating (0 to 100 scale)” value [18, 29] was 90, the “Barnyardgrass plant response rating (0-100)” value [19, 28] was 10 and the “Barnyardgrass plant response rating (0 to 100 scale)” value [19, 29] was 90. For the same molecule, the “Foxtail, Green plant response rating (0-100)” value [20, 28] was 0, the “Foxtail, Green plant response rating (0 to 100 scale)” value [20, 29] was 80 and the “Galium plant response rating (0-100)” value [21, 28] was 60. For the same molecule, the “Galium plant response rating (0 to 100 scale)” value [21, 29] was 70, the “Oat, Wild plant response rating (0-100)” value [22, 28] was 80 and the “Oat, Wild plant response rating (0 to 100 scale)” value [22, 29] was 90. For the same molecule, the “Ragweed plant response rating (0-100)” value [23, 28] was 30, the “Ragweed plant response rating (0 to 100 scale)” value [23, 29] was 50 and the “Soybean plant response rating (0-100)” value (soybean (Glycine max) [24]; [28]) was 10. The “Soybean plant response rating (0 to 100 scale)” value (soybean (Glycine max) [24]; [29]) was 60, the “Kochia plant response rating (0-100)” value (kochia (Bassia scoparia) [25]; [28]) was 0 and the “Kochia plant response rating (0 to 100 scale)” value (kochia (Bassia scoparia) [25]; [29]) was 70. The “Corn plant response rating (0-100)” value (corn (Zea mays) [26]; [28]) was 0, the “Corn plant response rating (0 to 100 scale)” value (corn (Zea mays) [26]; [29]) was 50 and the “Blackgrass plant response rating (0-100)” value [27, 28] was 90. For the same molecule, the “Blackgrass plant response rating (0 to 100 scale)” value [27, 29] was 100.
